According to patent US12377044B2, “Method and device for transdermal delivery of parathyroid hormone using a microprojection array” (Panther Life Sciences Corporation, priority 2010, dated 2025):

Test: clinical
Conditions: female, human, in vivo, sc, 20 ug
Description: The microprojection array described herein was used to administer transdermally hPTH (1-34) to healthy human subjects. As a comparator, hPTH (1-34) was also administered subcutaneously to a healthy group of human subjects.
In this study, a microprojection array was prepared as detailed in Example 9 and inserted into an applicator-array assembly to form a transdermal delivery system, as described in Example 10. […] The delivery system was designed to deliver a systemic dose of hPTH (1-34) across the stratum corneum barrier layer of the skin upon activation of the applicator to deploy an array of microstructures causing the array of microstructures to penetrate the stratum corneum. In this study, two dose levels were administered via the transdermal delivery system, 32 μg hPTH (1-34) and 64 μg hPTH (1-34) (32 μg hPTH (1-34)×2). Subjects received these doses by applying the transdermal microneedle delivery system MicroCor® device containing the indicated amount of hPTH in the distal tips of the microneedles in the array to an abdominal site, and leaving the device in place for five (5) minutes. The comparator treatment (the commercial hPTH product known as Forteo®) was subcutaneously administered via injection into the abdominal wall at a dose of 20 μg. Blood samples were drawn at designated times and analyzed for hPTH concentration. […]

half-life: 52 min
SMILES: CC[C@H](C)[C@H](NC(=O)[C@H](CCC(=O)O)NC(=O)[C@H](CO)NC(=O)[C@@H](NC(=O)[C@@H](N)CO)C(C)C)C(=O)N[C@@H](CCC(N)=O)C(=O)N[C@@H](CC(C)C)C(=O)N[C@@H](CCSC)C(=O)N[C@@H](Cc1cnc[nH]1)C(=O)N[C@@H](CC(N)=O)C(=O)N[C@@H](CC(C)C)C(=O)NCC(=O)N[C@@H](CCCCN)C(=O)N[C@@H](Cc1cnc[nH]1)C(=O)N[C@@H](CC(C)C)C(=O)N[C@@H](CC(N)=O)C(=O)N[C@@H](CO)C(=O)N[C@@H](CCSC)C(=O)N[C@@H](CCC(=O)O)C(=O)N[C@@H](CCCN=C(N)N)C(=O)N[C@H](C(=O)N[C@@H](CCC(=O)O)C(=O)N[C@@H](Cc1c[nH]c2ccccc12)C(=O)N[C@@H](CC(C)C)C(=O)N[C@@H](CCCN=C(N)N)C(=O)N[C@@H](CCCCN)C(=O)N[C@@H](CCCCN)C(=O)N[C@@H](CC(C)C)C(=O)N[C@@H](CCC(N)=O)C(=O)N[C@@H](CC(=O)O)C(=O)N[C@H](C(=O)N[C@@H](Cc1cnc[nH]1)C(=O)N[C@@H](CC(N)=O)C(=O)N[C@@H](Cc1ccccc1)C(=O)O)C(C)C)C(C)C [hPTH (1-34), human Parathyroid hormone (1-34)]
